# Assay results published in patent publication US6737383B1, “Herbicidal oxadiazolidines” (priority 1999, dated 2004).
# Key:
# wild oat = test: Test B pre/postemergence wild oat; format: in vivo, Avena fatua
# Outline: (§1)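 Herbicidal effect was estimated by eye on a ten-point control scale after plants spent twelve to sixteen days in a greenhouse following soil or foliar treatment. Foliar sprays targeted plants at one to four leaves; all doses were formulated in a non-phytotoxic solvent with surfactant.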
# pigweed = test: Test B pre/postemergence pigweed; format: in vivo, Amaranthus retroflexus
# Outline: as §1
# purple nutsedge = test: Test B pre/postemergence purple nutsedge; format: in vivo, Cyperus rotundus
# Outline: as §1
# velvetleaf = test: Test B pre/postemergence velvetleaf; format: in vivo, Abutilon theophrasti
# Outline: as §1
# crabgrass = test: Test B pre/postemergence crabgrass; format: in vivo, Digitaria sanguinalis
# Outline: as §1
# corn = test: Test B pre/postemergence corn; format: in vivo, Zea mays
# Outline: as §1
# soybean = test: Test B pre/postemergence soybean; format: in vivo, Glycine max
# Outline: as §1
# sugar beet = test: Test B pre/postemergence sugar beet; format: in vivo, Beta vulgaris
# Outline: as §1
# duck salad = test: Test B flood test duck salad; format: in vivo, Heteranthera limosa
# Outline: (§2)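 Flood test on plants grown to the 2-leaf stage; treated plants kept in greenhouse twelve to sixteen days, then visually rated against controls on a 0 (no effect) to 10 (complete control) scale.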
# blackgrass = test: Test B pre/postemergence blackgrass; format: in vivo, Alopecurus myosuroides
# Outline: as §1
# wheat = test: Test B pre/postemergence wheat; format: in vivo, Triticum aestivum
# Outline: as §1
# bedstraw = test: Test B pre/postemergence bedstraw; format: in vivo, Galium aparine
# Outline: as §1
# giant foxtail = test: Test B pre/postemergence giant foxtail; format: in vivo, Setaria faberii
# Outline: as §1
# surinam grass = test: Test B pre/postemergence surinam grass; format: in vivo, Brachiaria decumbens
# Outline: as §1
# rice = test: Test B flood test rice; format: in vivo, Oryza sativa
# Outline: as §2
# cocklebur = test: Test B pre/postemergence cocklebur; format: in vivo, Xanthium strumarium
# Outline: as §1
# [1] = Postemergence, Rate 125 g/ha, scale of 0 to 10 where 0 is no effect and 10 is complete control
# [2] = Postemergence, Rate 250 g/ha, scale of 0 to 10, 0 is no effect, 10 is complete control
# [3] = Postemergence, Rate 500 g/ha, scale of 0 to 10 where 0 is no effect and 10 is complete control
# [4] = Postemergence, Rate 1000 g/ha, scale 0 to 10 (0 no effect, 10 complete control)
# [5] = Preemergence, Rate 125 g/ha, scale of 0 to 10 where 0 is no effect and 10 is complete control
# [6] = Preemergence, Rate 500 g/ha, scale of 0 to 10 where 0 is no effect and 10 is complete control
# [7] = Rate 1000 g/ha, Preemergence, scale 0 to 10 (0 no effect, 10 complete control)
# [8] = Pre-emergence, Rate 1000 g/ha, scale 0 to 10 (0 no effect, 10 complete control)
# [9] = Rate 125 g/ha, under heading Pre-emergence, flood test species, visual evaluation after twelve to sixteen days
# [10] = Rate 250 g/ha, Pre-emergence (flood test species), scale 0 to 10, 0 is no effect, 10 is complete control
# [11] = Rate 500 g/ha, Pre-emergence section of Table B, 0 to 10 scale (0 no effect, 10 complete control)
smiles,measurement,setting,value
C=CCn1c(=O)on(C(=O)N(c2c(C)cccc2C)C(C)COC)c1=O (centres unmarked) [Compound 600],"Plant response rating, Wild oats",wild oat; [1],0
same,Wild oats plant response rating,wild oat; [2],0
same,"Plant response rating, Wild oats",wild oat; [3],0
same,Wild oats plant response rating,wild oat; [4],0
same,Wild oats plant response rating,wild oat; [5],0
same,"Plant response rating, Wild oats",wild oat; [6],0
same,"Plant response rating, Wild oats",wild oat; [7],0
same,"Plant response rating, Redroot pigweed",pigweed; [1],0
same,Redroot pigweed plant response rating,pigweed; [2],0
same,"Plant response rating, Redroot pigweed",pigweed; [3],0
same,Redroot pigweed plant response rating,pigweed; [4],0
same,Redroot pigweed plant response rating,pigweed; [5],0
same,"Plant response rating, Redroot pigweed",pigweed; [6],0
same,"Plant response rating, Redroot pigweed",pigweed; [7],0
same,"Plant response rating, Nutsedge",purple nutsedge; [1],0
same,Nutsedge plant response rating,purple nutsedge; [2],0
same,"Plant response rating, Nutsedge",purple nutsedge; [3],0
same,Nutsedge plant response rating,purple nutsedge; [4],0
same,Nutsedge plant response rating,purple nutsedge; [5],0
same,"Plant response rating, Nutsedge",purple nutsedge; [6],0
same,"Plant response rating, Nutsedge",purple nutsedge; [7],0
same,"Plant response rating, Velvetleaf",velvetleaf; [1],0
same,Velvetleaf plant response rating,velvetleaf; [2],0
same,"Plant response rating, Velvetleaf",velvetleaf; [3],0
same,Velvetleaf plant response rating,velvetleaf; [4],0
same,Velvetleaf plant response rating,velvetleaf; [5],0
same,"Plant response rating, Velvetleaf",velvetleaf; [6],0
same,"Plant response rating, Velvetleaf",velvetleaf; [7],0
same,"Plant response rating, Crabgrass",crabgrass; [1],1
same,"Plant response rating, Crabgrass",crabgrass; [3],3
same,Crabgrass plant response rating,crabgrass; [4],3
same,Crabgrass plant response rating,crabgrass; [5],0
same,"Plant response rating, Crabgrass",crabgrass; [6],0
same,"Plant response rating, Crabgrass",crabgrass; [7],0
same,"Plant response rating, Corn",corn; [1],0
same,Corn plant response rating,corn; [2],0
same,"Plant response rating, Corn",corn; [3],0
same,Corn plant response rating,corn; [4],0
same,Corn plant response rating,corn; [5],0
same,Corn plant response rating (0 to 10 scale),"corn; Preemergence, Rate 250 g/ha",0
same,"Plant response rating, Corn",corn; [6],0
same,"Plant response rating, Corn",corn; [7],0
same,"Plant response rating, Soybean",soybean; [1],2
same,Soybean plant response rating,soybean; [2],3
same,"Plant response rating, Soybean",soybean; [3],4
same,Soybean plant response rating,soybean; [4],4
same,Soybean plant response rating,soybean; [5],0
same,"Plant response rating, Soybean",soybean; [6],0
same,"Plant response rating, Soybean",soybean; [7],3
same,"Plant response rating, Sugarbeets",sugar beet; [1],0
same,Sugarbeets plant response rating,sugar beet; [2],0
same,"Plant response rating, Sugarbeets",sugar beet; [3],0
same,Sugarbeets plant response rating,sugar beet; [4],0
same,Sugarbeets plant response rating,sugar beet; [5],0
same,"Plant response rating, Sugarbeets",sugar beet; [6],0
same,"Plant response rating, Sugarbeets",sugar beet; [7],0
same,Ducksalad plant response rating,duck salad; [8],0
same,"Ducksalad plant response rating (0 to 10 scale, 0 is no effect, 10 is complete control)",duck salad; [9],0
same,Ducksalad plant response rating,duck salad; [10],0
same,Ducksalad plant response rating,duck salad; [11],0
same,"Plant response rating, Blackgrass",blackgrass; [1],0
same,Blackgrass plant response rating,blackgrass; [2],0
same,"Plant response rating, Blackgrass",blackgrass; [3],0
same,Blackgrass plant response rating,blackgrass; [4],0
same,Blackgrass plant response rating,blackgrass; [5],0
same,Blackgrass plant response rating (0 to 10 scale),"blackgrass; Preemergence, Rate 250 g/ha",0
same,Blackgrass plant response rating,blackgrass; [6],0
same,"Plant response rating, Blackgrass",blackgrass; [7],0
same,"Plant response rating, Wheat",wheat; [1],0
same,Wheat plant response rating,wheat; [2],0
same,"Plant response rating, Wheat",wheat; [3],0
same,Wheat plant response rating,wheat; [4],0
same,Wheat plant response rating,wheat; [5],0
same,"Plant response rating, Wheat",wheat; [6],0
same,"Plant response rating, Wheat",wheat; [7],0
same,"Plant response rating, Bedstraw",bedstraw; [3],0
same,Bedstraw plant response rating,bedstraw; [4],0
same,Bedstraw plant response rating (0 to 10 scale),"bedstraw; Preemergence, Rate 250 g/ha",0
same,Bedstraw plant response rating,bedstraw; [6],0
same,"Plant response rating, Bedstraw",bedstraw; [7],0
same,"Plant response rating, Giant foxtail",giant foxtail; [1],0
same,Giant foxtail plant response rating,giant foxtail; [2],0
same,"Plant response rating, Giant foxtail",giant foxtail; [3],3
same,Giant foxtail plant response rating,giant foxtail; [4],3
same,Giant foxtail plant response rating,giant foxtail; [5],0
same,"Plant response rating, Giant foxtail",giant foxtail; [6],0
same,"Plant response rating, Giant foxtail",giant foxtail; [7],0
same,"Plant response rating, B. signalgrass",surinam grass; [1],0
same,B. signalgrass plant response rating,surinam grass; [2],0
same,"Plant response rating, B. signalgrass",surinam grass; [3],0
same,B. signalgrass plant response rating,surinam grass; [4],0
same,B. signalgrass plant response rating,surinam grass; [5],0
same,"B. signalgrass plant response rating (0 to 10 scale, 0 is no effect, 10 is complete control)","surinam grass; Preemergence, Rate 250 g/ha",0
same,B. signalgrass plant response rating,surinam grass; [6],0
same,"Plant response rating, B. signalgrass",surinam grass; [7],0
same,Rice plant response rating,rice; [8],0
same,"Rice plant response rating (0 to 10 scale, 0 is no effect, 10 is complete control)",rice; [9],0
same,Rice plant response rating,rice; [10],0
same,Rice plant response rating,rice; [11],0
same,"Plant response rating, Cocklebur",cocklebur; [1],0
same,Cocklebur plant response rating,cocklebur; [2],0
same,"Plant response rating, Cocklebur",cocklebur; [3],0
same,Cocklebur plant response rating,cocklebur; [4],0
same,Cocklebur plant response rating,cocklebur; [5],0
same,Cocklebur plant response rating (0 to 10 scale),"cocklebur; Preemergence, Rate 250 g/ha",0
same,"Plant response rating, Cocklebur",cocklebur; [6],0
same,"Plant response rating, Cocklebur",cocklebur; [7],0
